Laboratory results as given in patent publication US8716478B2, “Boron-containing small molecules” (Anacor Pharmaceuticals, Inc., priority 2010, dated 2014).

How the values were obtained:
[1] = system: TNF-α; experiment: In vivo TNF-α release in LPS treated mice; parameters: species or system Swiss Webster mice
Method: In vivo TNF-α release was measured in Swiss Webster mice, 10/group. Animals were dosed via oral gavage with drug 1% CMC suspension. Thirty minutes later LPS, 1.5 mg/kg was administered by intraperitoneal injection. Ninety minutes later animals were sacrificed, blood was collected by exsangination and serum prepared for analysis. TNF-α concentration was assessed by ELISA, non-drug treated animals had TNF-α levels 1000-3000 pg/mL. 6-(1-Hydroxy-1,3-dihydrobenzo[c][1,2]oxaborol-5-yloxy)-2-(2-isopropoxyethoxy)nicotinonitrile (D140) and 6-(1-hydroxy-1,3-dihydrobenzo[c][1,2]oxaborol-5-yloxy)-2-(4-oxopentyloxy)nicotinonitrile (D141) are disclosed in U.S. patent application Ser. No. 12/399,015, filed Mar. 5, 2009.

[2] = system: human PDE4 enzyme; experiment: Phosphodiesterase 4 (PDE4) inhibition, semi-purified enzyme from human U937 cells; type: biochemical; conditions: 1 μM cAMP, 20 minutes at 25° C.; read-out: PDE4 IC50
[3] = system: TNF-α in peripheral blood mononuclear cells (PBMCs); experiment: TNF-α inhibition in LPS-stimulated peripheral blood mononuclear cells; type: cell-based; conditions: PBMC; PBMCs, LPS 1 μg/mL for 24 h; read-out: Proinflammatory TNF-α IC50
In short: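 Pooled human PBMCs (10-20 donors), 5×10^5 cells/well in RPMI with 10% FCS, <2% DMSO final, stimulated with LPS at 1 μg/mL for 24 h with compound. TNF-α in supernatant measured by cytometric bead array; IC50 by four-parameter logistic fit.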

[4] = Pharmacokinetics and oral bioavailability after IV and PO dosing; type: in vivo, female CD-1 mice; conditions: plasma
Method: The objective of this study was to evaluate the pharmacokinetics and oral bioavailability of PDE4 inhibitors following intravenous (IV) administration and oral (PO) doses in female CD-1 mice.
After dosing, blood samples were collected through 24 h, twice from each animal at specific times (3 mice/time point), into microcentrifuge tubes containing K2EDTA (anticoagulant), stored on wet ice and processed for plasma. The plasma samples were analyzed for concentrations of parent compound by LC/MS/MS using an internal standard/peak area method. Pharmacokinetic analysis of the mean plasma concentration-time profiles following IV and PO administration was performed.
[…] Dosing solutions for intravenous administration were prepared in 55% PEG300/25% PG/20% water. Oral dosing used a suspension prepared in 1% CMC in water with 0.1% Tween 80.
After dosing, blood samples were collected through 24 h, twice from each animal via retro-orbital bleed (˜0.1 mL, 1st time point) or cardiac puncture (˜0.6 mL, 2nd time point) at specific times (3 mice/time point), into microcentrifuge tubes containing K2EDTA (anticoagulant) and stored on wet ice prior to processing.
Plasma was prepared by centrifugation of blood samples for 6 min at approximately 2000×g or 6000 rpm at 4° C. All processed plasma samples (˜50 μL and 300 μL) were transferred to analysis tubes, placed on dry ice immediately and later stored at −80° C. until analysis for concentrations of experimental compound by LC/MS/MS.
Mouse IV clearance, Mouse Oral AUC and Oral Bioavailability are provided below. 6-(1-Hydroxy-1,3-dihydrobenzo[c][1,2]oxaborol-5-yloxy)-2-(2-isopropoxyethoxy)nicotinonitrile (D140) and 6-(1-hydroxy-1,3-dihydrobenzo[c][1,2]oxaborol-5-yloxy)-2-(4-oxopentyloxy)nicotinonitrile (D141) are disclosed in U.S. patent application Ser. No. 12/399,015, filed Mar. 5, 2009.

[5] = system: Brugia malayi; experiment: Brugia malayi in vitro assay, adult female worms; conditions: 50 uM
Method: Adult female worms are shipped from TRS Labs Inc. (Nonglak Supakorndej, Lab Director, 295 Research Dr., Athens, Ga. 30605; 706-549-0764) via Fed Ex. Individual worms are shipped in 2 mls vials with RPMI on Mondays and arrive at the […] Center lab on Tuesday mornings. Individual worms are poured into each well (24-well tissue culture plates) to avoid handling worms since they are very delicate and easily broken. Transport media is removed and replaced with 0.5 mls of RPMI-1640 (25 mM HEPES, 2 g/L NaHCO3, Antibiotic/Antimycotic, 5% HI FBS). Worms are maintained in a 37° C. 5% CO2 incubator. Compounds are added directly to each duplicate well (5 ul of 5 mM for a final concentration of 50 uM). DMSO (5 ul) is used as a negative control and Ivermectin (Sigma) is used as a positive control at 100 uM/well and 20 uM/well. Adult filarial nematodes can shed/give birth to microfilarial worms (mf) during the course of the assay. Wells were reviewed for the presence of mf, and the viability of mf, by visual observation of the well on the last day of observation (Day 7). Plates are examined once a day for 4-7 days. […] If changes are observed, worms are more closely examined under a dissecting microscope.

SMILES	% Inhibition of TNFa Blood Levels in LPS Treated Mice ([1]; Oral Dose 0.03 mg/kg) [%]	% Inhibition of TNFa Blood Levels in LPS Treated Mice ([1]; Oral Dose 0.1 mg/kg) [%]	% Inhibition of TNFa Blood Levels in LPS Treated Mice ([1]; Oral Dose 0.3 mg/kg) [%]	% Inhibition of TNFa Blood Levels in LPS Treated Mice ([1]; Oral Dose 1 mg/kg) [%]	% Inhibition of TNFa Blood Levels in LPS Treated Mice ([1]; Oral Dose 1.5 mg/kg) [%]	% Inhibition of TNFa Blood Levels in LPS Treated Mice ([1]; Oral Dose 3 mg/kg) [%]	% Inhibition of TNFa Blood Levels in LPS Treated Mice ([1]; Oral Dose 5 mg/kg) [%]	% Inhibition of TNFa Blood Levels in LPS Treated Mice ([1]; Oral Dose 10 mg/kg) [%]	% Inhibition of TNFa Blood Levels in LPS Treated Mice ([1]; Oral Dose 15 mg/kg) [%]	% Inhibition of TNFa Blood Levels in LPS Treated Mice ([1]; Oral Dose 30 mg/kg) [%]	IC50 [2] [nM]	IC50 [3] [nM]	bioavailability ([4]; female, CD-1, mouse, po) [%]	AUC ([4]; female, CD-1, mouse, 10 mg/kg oral suspension dose) [ng·h/mL]	clearance ([4]; mouse, 5 mg/kg, female CD-1 mice, intravenous) [mL/min/kg]	worm activity score / phenotype, Day 3 ([5]; trial one)	worm activity score / phenotype, Day 3 ([5]; trial two)
CC(=O)CCCOc1nc(Oc2ccc3c(c2)COB3O)c(Cl)cc1C#N [Compound D231, 5-Chloro-6-(1-hydroxy-1,3-dihydrobenzo[c][1,2]oxaborol-5-yloxy)-2-(4-oxopentyloxy)nicotinonitrile]	0	22	33.6	69.5	58	75.6	85.5	85.6	81.3	97.3	0.8	0.44	96	8500	25	2 to 3	2 to 3
CC(C)OCCOc1nc(Oc2ccc3c(c2)COB3O)ccc1C#N [6-(1-hydroxy-1,3-dihydrobenzo[c][1,2]oxaborol-5-yloxy)-2-(4-isopropoxy-ethoxy)nicotinonitrile]	–	–	–	–	–	–	–	–	–	–	–	–	–	–	–	–	4 (highly active (controls))
